Results taken from patent publication US20260265195A1, “SARM1 MODULATORS, PREPARATIONS, AND USES THEREOF” (SIRONAX LTD, priority 2022, published 2026).

Target: T1, SARM1 (50-724) (Homo sapiens, UniProt Q6SZW1)
T1 construct: Purified SARM1 (50-724) with a final concentration of 2 nM
T1 sequence (Q6SZW1 50-724): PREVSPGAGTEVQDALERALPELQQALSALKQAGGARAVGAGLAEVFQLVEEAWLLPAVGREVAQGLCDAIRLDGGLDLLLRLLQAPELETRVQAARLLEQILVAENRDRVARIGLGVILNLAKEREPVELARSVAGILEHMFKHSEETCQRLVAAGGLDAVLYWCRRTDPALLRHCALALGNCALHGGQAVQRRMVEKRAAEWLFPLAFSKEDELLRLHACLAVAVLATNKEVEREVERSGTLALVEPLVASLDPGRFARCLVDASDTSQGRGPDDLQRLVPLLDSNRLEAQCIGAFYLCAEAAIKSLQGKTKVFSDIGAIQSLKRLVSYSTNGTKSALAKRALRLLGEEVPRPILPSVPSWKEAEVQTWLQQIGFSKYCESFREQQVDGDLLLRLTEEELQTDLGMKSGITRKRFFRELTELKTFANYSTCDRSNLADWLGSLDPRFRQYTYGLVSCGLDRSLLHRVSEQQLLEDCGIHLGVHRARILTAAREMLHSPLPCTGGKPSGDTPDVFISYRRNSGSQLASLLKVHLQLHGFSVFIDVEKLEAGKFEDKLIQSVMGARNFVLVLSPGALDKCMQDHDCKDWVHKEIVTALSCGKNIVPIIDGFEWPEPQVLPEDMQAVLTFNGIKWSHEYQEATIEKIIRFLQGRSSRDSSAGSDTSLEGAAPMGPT
Experiment: SARM1 (50-724) enzymatic assay (NMN-activated NAD+ hydrolysis, LC-MS/MS readout)
Format: biochemical
Conditions: purified SARM1 (50-724) 2 nM, 200 μM NMN activator, 100 μM NAD+ substrate, 1 h at room temperature, read-out: IC50 (SARM1 inhibitory activity)
Method in brief: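 Purified human SARM1 (50-724), 2 nM final in DPBS, pre-incubated 15 min at RT with compound (1% DMSO), then started with 200 μM NMN activator and 100 μM NAD+. After 1 h at RT, quenched with 70% acetonitrile; analysed by LC-MS/MS.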

| SMILES | IC50 |
| --- | --- |
| O=C(c1nc2cc(C(F)(F)F)ccc2[nH]1)N(CC(F)(F)CO)c1ccc(F)cc1Cl [Compound 216, N-(2-chloro-4-fluorophenyl)-N-(2,2-difluoro-3-hydroxypropyl)-5-(trifluoromethyl)-1H-benzo[d]imidazole-2-carboxamide] | ≤ 100 nM |
| O=C(c1nc2cc(C(F)(F)F)ccc2[nH]1)N(CC(F)(F)CO)c1cc(F)cc(F)c1Cl [Compound 218, N-(2-chloro-3,5-difluorophenyl)-N-(2,2-difluoro-3-hydroxypropyl)-5-(trifluoromethyl)-1H-benzo[d]imidazole-2-carboxamide] | ≤ 100 nM |
| O=C(c1nc2cc(C(F)(F)F)ccc2[nH]1)N(CC(F)(F)CO)c1cc(F)ccc1Cl [Compound 219, N-(2-chloro-5-fluorophenyl)-N-(2,2-difluoro-3-hydroxypropyl)-5-(trifluoromethyl)-1H-benzo[d]imidazole-2-carboxamide] | 101 to 500 nM |
| O=C(c1nc2cc(C(F)(F)F)ccc2[nH]1)N(CC(F)(F)CO)c1cc(F)c(F)cc1Cl [Compound 220, N-(2-chloro-4,5-difluorophenyl)-N-(2,2-difluoro-3-hydroxypropyl)-5-(trifluoromethyl)-1H-benzo[d]imidazole-2-carboxamide] | 101 to 500 nM |
| CC(C)(C)c1ccc2[nH]c(C(=O)N(CC3(F)COC3)c3[nH]c(=O)ccc3Cl)nc2c1 [Compound 221, 5-(tert-butyl)-N-(3-chloro-6-oxo-1,6-dihydropyridin-2-yl)-N-((3-fluorooxetan-3-yl)methyl)-1H-benzo[d]imidazole-2-carboxamide] | ≤ 100 nM |
| O=C(c1nc2cc(C3CC3)ccc2[nH]1)N(CC(F)(F)CO)c1ccc(F)c(F)c1Cl [Compound 222] | ≤ 100 nM |
| CC1(c2ccc3[nH]c(C(=O)N(CC(F)(F)CO)c4cccc(F)c4Cl)nc3c2)COC1 [Compound 223, N-(2-chloro-3-fluorophenyl)-N-(2,2-difluoro-3-hydroxypropyl)-5-(3-methyloxetan-3-yl)-1H-benzo[d]imidazole-2-carboxamide] | ≤ 100 nM |
| CS(=N)(=O)CCCN(C(=O)c1nc2cc(C(F)(F)F)ccc2[nH]1)c1cccc(F)c1Cl (centres unmarked) [Compound 224, N-(2-chloro-3-fluorophenyl)-N-(3-(S-methylsulfonimidoyl)propyl)-5-(trifluoromethyl)-1H-benzo[d]imidazole-2-carboxamide] | ≤ 100 nM |
| CN=S(C)(=O)CCCN(C(=O)c1nc2cc(C(F)(F)F)ccc2[nH]1)c1cccc(F)c1Cl (centres unmarked) [Compound 225, N-(2-chloro-3-fluorophenyl)-N-(3-(N,S-dimethylsulfonimidoyl)propyl)-5-(trifluoromethyl)-1H-benzo[d]imidazole-2-carboxamide] | ≤ 100 nM |
| CS(=O)(=O)CCCN(C(=O)c1nc2cc(C(F)(F)F)ccc2[nH]1)c1cccc(F)c1Br [Compound 227, N-(2-bromo-3-fluorophenyl)-N-(3-(methylsulfonyl)propyl)-5-(trifluoromethyl)-1H-benzo[d]imidazole-2-carboxamide] | ≤ 100 nM |
| CS(=O)(=O)CCN(C(=O)c1nc2cc(C(F)(F)F)ccc2[nH]1)c1cccc(F)c1Cl [Compound 229, N-(2-chloro-3-fluorophenyl)-N-(2-(methylsulfonyl)ethyl)-5-(trifluoromethyl)-1H-benzo[d]imidazole-2-carboxamide] | ≤ 100 nM |
| NC(=O)C(F)(F)CN(C(=O)c1nc2cc(Cl)cc(F)c2[nH]1)c1ccc(F)c(F)c1Cl [Compound 231] | ≤ 100 nM |
| O=C(c1nc2cc(Cl)cc(F)c2[nH]1)N(CC(F)(F)CO)c1cccc(F)c1Cl [Compound 232, 5-chloro-N-(2-chloro-3-fluorophenyl)-N-(2,2-difluoro-3-hydroxypropyl)-7-fluoro-1H-benzo[d]imidazole-2-carboxamide] | ≤ 100 nM |
| O=C(c1nc2cc(Cl)cc(F)c2[nH]1)N(CC(F)(F)CO)c1ccc(F)c(F)c1Cl [Compound 233] | ≤ 100 nM |
| NC(=O)C(F)(F)CN(C(=O)c1nc2cc(Cl)cc(F)c2[nH]1)c1cccc(F)c1Cl [Compound 234] | ≤ 100 nM |
| O=C(c1nc2cc(Cl)cc(Cl)c2[nH]1)N(CC(F)(F)CO)c1cccc(F)c1Cl [Compound 235] | 101 to 500 nM |
| O=C(c1nc2c(F)c(Cl)ccc2[nH]1)N(CC(F)(F)CO)c1cccc(F)c1Cl [Compound 236] | ≤ 100 nM |
| CN(C(=O)c1nc2cc(C(F)(F)F)ccc2[nH]1)c1ccncc1OC(F)(F)F [Compound 237, N-methyl-N-(3-(trifluoromethoxy)pyridin-4-yl)-5-(trifluoromethyl)-1H-benzo[d]imidazole-2-carboxamide] | 501 to 1000 nM |
| CC1(O)CC(N(C(=O)c2nc3cc(C(F)(F)F)ccc3[nH]2)c2cccc(F)c2Cl)C1 (centres unmarked) [Compound 239, N-(2-chloro-3-fluorophenyl)-N-(3-hydroxy-3-methylcyclobutyl)-5-(trifluoromethyl)-1H-benzo[d]imidazole-2-carboxamide] | 101 to 500 nM |
| Cc1c(F)cncc1N(CCO)C(=O)c1nc2cc(C(F)(F)F)ccc2[nH]1 [compound 169] | 101 to 500 nM |
